Measured values taken from ChEMBL document CHEMBL3758130, “Effect of Chicoric Acid on Mast Cell-Mediated Allergic Inflammation in Vitro and in Vivo” (J Nat Prod, 2015).
Activity calls are given as the source filed them. The rule behind the calls is not given here.

What was measured:
[1] = Cytotoxicity against HMC1 cells at 6.25 to 50 uM after 24 hrs by MTT assay; format: cell-based; conditions: human, hmc1, 24 h
[2] = Effect on Akt level in HMC1 cells at 12.5 to 50 uM pretreated for 30 mins followed by addition of PMACI incubated for 5 mins by Western blot analysis; format: ADME, cell-based; conditions: human, hmc1, 5 min
[3] = Effect on IKKalpha/beta level in HMC1 cells at 12.5 to 50 uM pretreated for 30 mins followed by addition of PMACI incubated for 15 mins by Western blot analysis; format: ADME, cell-based; conditions: human, hmc1, 0.25 h
[4] = Effect on ERK level in HMC1 cells at 12.5 to 50 uM pretreated for 30 mins followed by addition of PMACI incubated for 15 mins by Western blot analysis; format: cell-based; conditions: human, hmc1, 0.25 h
[5] = Effect on JNK level in HMC1 cells at 12.5 to 50 uM pretreated for 30 mins followed by addition of PMACI incubated for 15 mins by Western blot analysis; format: cell-based; conditions: human, hmc1, 0.25 h
[6] = Effect on p38 level in HMC1 cells at 12.5 to 50 uM pretreated for 30 mins followed by addition of PMACI incubated for 15 mins by Western blot analysis; format: ADME, cell-based; conditions: human, hmc1, 0.25 h
[7] = tested on: Mus musculus; assay: Antiinflammatory activity in ICR male mouse assessed as reduction in compound 48/80-induced mortality rate at 20 mg/kg, ip dosed 1 hr prior to anaphylactic shock measured for 1 hr
[8] = tested on: HMC1; assay: Inhibition of PMACI-induced phosphorylation of ERK in HMC1 cells at 12.5 to 50 uM pretreated for 30 mins followed by addition of PMACI incubated for 15 mins by Western blot analysis; conditions: Homo sapiens
[9] = molecular target: c-Jun N-terminal kinase, JNK (Homo sapiens) (UniProt P45983+P53779+P45984); assay: Inhibition of PMACI-induced phosphorylation of JNK in HMC1 cells at 12.5 to 50 uM pretreated for 30 mins followed by addition of PMACI incubated for 15 mins by Western blot analysis
[10] = molecular target: MAP kinase p38 (Homo sapiens) (UniProt O15264+Q15759+Q16539+P53778); assay: Inhibition of PMACI-induced phosphorylation of p38 in HMC1 cells at 12.5 to 50 uM pretreated for 30 mins followed by addition of PMACI incubated for 15 mins by Western blot analysis
[11] = molecular target: T1, NF-kappa-B inhibitor alpha (Homo sapiens) (UniProt P25963); assay: Inhibition of PMACI-induced degradation of IkappaB-alpha in HMC1 cells at 12.5 to 50 uM pretreated for 30 mins followed by addition of PMACI incubated for 15 mins by Western blot analysis
T1 sequence (whole entry): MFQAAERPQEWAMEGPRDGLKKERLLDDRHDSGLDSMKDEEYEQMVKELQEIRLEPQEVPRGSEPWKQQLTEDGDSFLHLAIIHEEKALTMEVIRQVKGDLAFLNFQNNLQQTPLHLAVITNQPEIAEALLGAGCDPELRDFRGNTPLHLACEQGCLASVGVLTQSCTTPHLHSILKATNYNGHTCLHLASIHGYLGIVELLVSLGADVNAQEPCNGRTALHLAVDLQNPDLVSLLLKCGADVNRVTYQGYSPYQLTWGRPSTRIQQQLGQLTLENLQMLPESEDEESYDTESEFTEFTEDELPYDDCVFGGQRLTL

[12] = tested on: Mus musculus; assay: Antiinflammatory activity in ICR male mouse assessed as reduction in compound 48/80-induced serum histamine level at 20 mg/kg, ip dosed 1 hr prior to anaphylactic shock by enzymeimmunoassay
[13] = molecular target: RAC-alpha serine/threonine-protein kinase (Homo sapiens) (UniProt P31749); assay: Inhibition of PMACI-induced phosphorylation of Akt at […] in HMC1 cells at 12.5 to 50 uM pretreated for 30 mins followed by addition of PMACI incubated for 5 mins by Western blot analysis
[14] = molecular target: Inhibitor of NF-kappa-B kinase alpha/beta (Homo sapiens) (UniProt O14920+O15111); assay: Inhibition of PMACI-induced phosphorylation of IKKalpha/beta in HMC1 cells at 12.5 to 50 uM pretreated for 30 mins followed by addition of PMACI incubated for 15 mins by Western blot analysis
[15] = molecular target: T1, NF-kappa-B inhibitor alpha (Homo sapiens); assay: Inhibition of PMACI-induced phosphorylation of IkappaB-alpha in HMC1 cells at 12.5 to 50 uM pretreated for 30 mins followed by addition of PMACI incubated for 15 mins by Western blot analysis
[16] = tested on: HMC1; assay: Antiinflammatory activity in HMC1 cells assessed as suppression of PMACI-induced IL-6 production pretreated for 30 mins followed by addition of PMACI incubated for 24 hrs by enzyme immunoassay; conditions: Homo sapiens
[17] = tested on: HMC1; assay: Antiinflammatory activity in HMC1 cells assessed as suppression of pro-caspase-1 degradation pretreated for 30 mins followed by addition of PMACI incubated for 15 mins by Western blot analysis; conditions: Homo sapiens
[18] = tested on: HMC1; assay: Antiinflammatory activity in HMC1 cells assessed as suppression of PMACI-induced IL-6 mRNA expression pretreated for 30 mins followed by addition of PMACI incubated for 6 hrs by qRT-PCR analysis; conditions: Homo sapiens
[19] = tested on: HMC1; assay: Antiinflammatory activity in HMC1 cells assessed as suppression of PMACI-induced IL-1beta production pretreated for 30 mins followed by addition of PMACI incubated for 24 hrs by enzyme immunoassay; conditions: Homo sapiens
[20] = tested on: HMC1; assay: Antiinflammatory activity in HMC1 cells assessed as suppression of PMACI-induced TNF-alpha production pretreated for 30 mins followed by addition of PMACI incubated for 24 hrs by enzyme immunoassay; conditions: Homo sapiens
[21] = tested on: HMC1; assay: Antiinflammatory activity in HMC1 cells assessed as suppression of PMACI-induced IL-1beta mRNA expression pretreated for 30 mins followed by addition of PMACI incubated for 6 hrs by qRT-PCR analysis; conditions: Homo sapiens
[22] = tested on: HMC1; assay: Antiinflammatory activity in HMC1 cells assessed as suppression of PMACI-induced TNF-alpha mRNA expression pretreated for 30 mins followed by addition of PMACI incubated for 6 hrs by qRT-PCR analysis; conditions: Homo sapiens

Sequence of RAC-alpha serine/threonine-protein kinase (Homo sapiens) (P31749 whole entry): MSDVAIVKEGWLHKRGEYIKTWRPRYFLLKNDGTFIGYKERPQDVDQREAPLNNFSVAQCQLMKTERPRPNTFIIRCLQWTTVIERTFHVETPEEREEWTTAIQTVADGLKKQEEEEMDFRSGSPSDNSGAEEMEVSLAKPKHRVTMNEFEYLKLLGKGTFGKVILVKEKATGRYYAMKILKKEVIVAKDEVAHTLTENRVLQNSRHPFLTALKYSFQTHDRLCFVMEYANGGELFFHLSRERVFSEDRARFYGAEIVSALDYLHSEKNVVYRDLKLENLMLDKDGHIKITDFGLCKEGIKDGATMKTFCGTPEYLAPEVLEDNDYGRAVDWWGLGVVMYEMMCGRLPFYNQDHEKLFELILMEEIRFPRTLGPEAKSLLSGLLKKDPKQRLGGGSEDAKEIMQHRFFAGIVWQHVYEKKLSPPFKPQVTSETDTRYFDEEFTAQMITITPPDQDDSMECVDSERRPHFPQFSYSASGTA

inhibition [9]: inactive
inhibition [10]: inactive
inhibition [11]: Active
inhibition [13]: Active
inhibition [14]: Active
inhibition [15]: Active
Structure (SMILES): O=C(/C=C/c1ccc(O)c(O)c1)O[C@@H](C(=O)O)[C@@H](OC(=O)/C=C/c1ccc(O)c(O)c1)C(=O)O [CICHORIC ACID]
Activity [1]: Non-toxic
Activity [2]: Non-toxic
Activity [3]: Non-toxic
Activity [4]: Non-toxic
Activity [5]: Non-toxic
Activity [6]: Non-toxic
Activity [7]: Active
inhibition [8]: inactive
Activity [12]: Active
Activity [16]: Dose-dependent effect
Activity [17]: Active
Activity [18]: Dose-dependent effect
Activity [19]: Dose-dependent effect
Activity [20]: Dose-dependent effect
Activity [21]: Dose-dependent effect
Activity [22]: Dose-dependent effect
